These results are taken from ChEMBL document CHEMBL1131795, “The spiroketals containing a benzyloxymethyl moiety at C8 position showed the most potent apoptosis-inducing activity” (1999).

What all share (assay type): functional
The species named for assay [1] is Homo sapiens. Briefly: Cell viability of serum-deprived Jurkat cells were determined, 24 hours after incubation with 20 uM concentration of the compound, by MTT-assay. A general note: Tetrazolium dyes change colour on reduction, which living cells bring about.
The species entered for assay [2] is Homo sapiens. Briefly: Cell viability of serum-deprived Jurkat cells were determined, 24 hours after incubation with 100 uM concentration of the compound, by MTT-assay.
Assay [3] is filed under the species Homo sapiens. As to the kind of experiment: Concentration required to cause death of human T cell leukemia Jurkat cell was determined. Particulars: read-out: LC50 (the source's name).

Consider `C[C@@H]1CCCO[C@]12O[C@H](CO)[C@@H](C)C[C@H]2S(=O)(=O)c1ccccc1`, for which the Cell viability in the assay listed under Homo sapiens [1] was found to be 67.1%; in the assay filed under Homo sapiens [2] it was 39%.

In the case of `C[C@@H]1CCCO[C@@]12CC[C@H](C)[C@@H](COC1CCCCO1)O2` (some centres not stated), the Cell viability in the assay listed under Homo sapiens [1] was 84.1%; in the assay listed under Homo sapiens [2], 60.1%.

For `C[C@@H]1CCCO[C@@]12CC[C@H](C)[C@@H](CO)O2`, the Cell viability worked out at 86% in the assay listed under Homo sapiens [1] and 43.8% in the assay listed under Homo sapiens [2].

`C[C@@H]1CCCO[C@@]12CC[C@H](C)[C@@H](COCOCc1ccccc1)O2`: the Cell viability in the assay listed under Homo sapiens [1] is recorded as 77.9%; in the assay listed under Homo sapiens [2], 0.3%. Moreover, in the assay filed under Homo sapiens [3], the CC50 is 32 µM.

Turning to `C[C@@H]1CCCO[C@]12O[C@H](CO[Si](c1ccccc1)(c1ccccc1)C(C)(C)C)[C@@H](C)C[C@H]2S(=O)(=O)c1ccccc1`, the Cell viability came out at 79.5% in the assay listed under Homo sapiens [1] and 68.4% in the assay listed under Homo sapiens [2].

Take `C[C@@H]1CCCO[C@@]12CC[C@H](C)[C@@H](CO[Si](c1ccccc1)(c1ccccc1)C(C)(C)C)O2`: the values for the Cell viability in the assay listed under Homo sapiens [1] and in the assay listed under Homo sapiens [2] were 38.2% and 43%, respectively.

For `C[C@@H]1CCCO[C@@]12CCCCO2`, the Cell viability was 98.6% in the assay filed under Homo sapiens [1] and 87.4% in the assay listed under Homo sapiens [2].

Consider `COCOC[C@H]1O[C@@]2(CC[C@@H]1C)OCCC[C@H]2C`, for which the values for the Cell viability in the assay filed under Homo sapiens [1] and in the assay listed under Homo sapiens [2] were 89.1% and 81.5%, respectively.

Regarding `C[C@@H]1CCCO[C@@]12CC[C@H](C)[C@@H](COCc1ccccc1)O2`, the Cell viability was found to be 1.7% in the assay listed under Homo sapiens [1] and 0% in the assay listed under Homo sapiens [2]. In addition, the CC50 in the assay filed under Homo sapiens [3] came out at 14 µM.

For `CC1CC[C@]2(CCCCO2)OC1` (some centres not stated), the Cell viability is recorded as 97.7% in the assay filed under Homo sapiens [1] and 84.6% in the assay filed under Homo sapiens [2].
